# Data reported in US20090143279A1 (priority 2007, published 2009).
# Where two headings read alike, the source gives them in different places.
# Legend:
# [1] = tested on: C2C12 myotubes; conditions: for Viability (composite Z-score): normalized score vs mock-treated (DMSO) wells
# [2] = tested on: reactive oxygen species; assay type: cell-based, mouse; conditions: for ROS (composite Z-score): normalized score vs mock-treated (DMSO) wells
# [3] = tested on: mtOXPHOS transcripts; assay type: cell-based, mouse; conditions: for mitoOX (composite Z-score): normalized score vs mock-treated (DMSO) wells
# [4] = tested on: cellular dehydrogenase activity; conditions: for MTT (composite Z-score): normalized score vs mock-treated (DMSO) wells
# [5] = tested on: nuOXPHOS transcripts; assay type: cell-based, mouse; conditions: for nucOX (composite Z-score): normalized score vs mock-treated (DMSO) wells
# [6] = tested on: mitochondrial membrane potential; assay type: cell-based, mouse; conditions: for ΔΨm (composite Z-score): normalized score vs mock-treated (DMSO) wells
# [7] = tested on: OXPHOS gene expression; assay type: cell-based, mouse; conditions: for GE-HTS (composite Z-score): normalized score vs mock-treated (DMSO) wells
# [8] = tested on: cytochrome c; assay type: cell-based, mouse; conditions: for cyt c (composite Z-score): normalized score vs mock-treated (DMSO) wells
# [9] = composite Z-score vs mock-treated (DMSO) wells, concentration of each compound in μM
# [10] = composite Z-score vs DMSO wells, Conc 20 μM
# [11] = composite Z-score vs DMSO, Conc 20 μM
# [12] = normalized composite Z-score vs mock-treated (DMSO) wells, Conc 20 μM
# [13] = composite Z-score vs mock-treated (DMSO) wells, Conc 20 μM
# [14] = 20 μM, composite Z-score vs DMSO
# [15] = 25.78 μM, composite Z-score vs DMSO
compound,measurement,setting,value
COc1cc(OC)c2c(=O)cc(-c3ccccc3)oc2c1 [chrysin dimethyl ether],Viability (composite Z-score),[1]; Conc 20 μM,−0.006
same,ROS (composite Z-score),[2]; Conc 20 μM,1.158
same,mitoOX (composite Z-score),[3]; Conc 20 μM,0.470
same,MTT (composite Z-score),[4]; Conc 20 μM,−1.043
same,nucOX (composite Z-score),[5]; Conc 20 μM,0.444
same,ΔΨm (composite Z-score),[6]; Conc 20 μM,0.541
same,GE-HTS (composite Z-score),[7]; Conc 20 μM,0.480
same,cyt c (composite Z-score),[8]; Conc 20 μM,−1.016
COc1cc2occ(-c3cc4c(cc3OC)OCO4)c(=O)c2cc1OC [milldurone],Viability,[1]; [9],−0.401
same,ROS,[2]; [9],0.680
same,mitoOX,[3]; [9],−0.215
same,MTT,[4]; [9],−0.713
same,nucOX,[5]; [9],0.605
same,ΔΨm,[6]; [9],−0.569
same,GE-HTS,[7]; [9],0.343
same,cyt c,[8]; [9],0.465
CC1=CC(=O)C2=C(C)CC[C@@H]3[C@H](OC(=O)[C@H]3C)[C@@H]12 [leucomisine],Viability (composite Z-score),[1]; Conc 16.24 μM,−0.439
same,ROS (composite Z-score),[2]; Conc 16.24 μM,0.368
same,mitoOX (composite Z-score),[3]; Conc 16.24 μM,−0.470
same,MTT (composite Z-score),[4]; Conc 16.24 μM,−1.034
same,nucOX (composite Z-score),[5]; Conc 16.24 μM,−0.405
same,ΔΨm (composite Z-score),[6]; Conc 16.24 μM,0.151
same,GE-HTS (composite Z-score),[7]; Conc 16.24 μM,−0.450
same,cyt c (composite Z-score),[8]; Conc 16.24 μM,−0.568
[H]/N=C(/N)NS(=O)(=O)c1ccc(N)cc1 [sulfaguanidine],Viability,[1]; [10],−0.691
same,ROS,[2]; [10],0.902
same,mitoOX,[3]; [10],−0.556
same,MTT,[4]; [10],−0.421
same,nucOX,[5]; [10],−0.522
same,ΔΨm,[6]; [10],0.217
same,GE-HTS,[7]; [10],−0.571
same,cyt c,[8]; [10],0.147
COC(=O)c1c(C)c2c(c(C)c1O)OC(=O)c1c(C)c(Cl)c(O)c(Cl)c1O2 [leoidin],Viability,[1]; [11],0.035
same,ROS,[2]; [11],1.481
same,mitoOX,[3]; [11],−0.638
same,MTT,[4]; [11],0.994
same,nucOX,[5]; [11],−0.523
same,ΔΨm,[6]; [11],−1.352
same,GE-HTS,[7]; [11],−0.611
same,cyt c,[8]; [11],0.341
CC(=O)Nc1c(I)cc(I)c(C(=O)O)c1I [acetriazoic acid],Viability,[1]; [11],0.205
same,ROS,[2]; [11],1.158
same,mitoOX,[3]; [11],−0.320
same,MTT,[4]; [11],−0.938
same,nucOX,[5]; [11],−0.870
same,ΔΨm,[6]; [11],−0.059
same,GE-HTS,[7]; [11],−0.710
same,cyt c,[8]; [11],−1.416
COC(=O)CCC(=O)O[C@H]1CC[C@@]2(C)[C@@H](CC[C@@H]3[C@@H]2C(=O)C(O)[C@]2(C)[C@@H]4[C@H](C[C@@H]32)O[C@]2(CC[C@@H](C)CO2)[C@H]4C)C1 (stereo partly shown),Viability,[1]; [11],−0.315
same,ROS,[2]; [11],0.918
same,mitoOX,[3]; [11],−0.217
same,MTT,[4]; [11],−1.387
same,nucOX,[5]; [11],0.054
same,ΔΨm,[6]; [11],−0.760
same,GE-HTS,[7]; [11],−0.063
same,cyt c,[8]; [11],−0.005
CC1(C)O[C@@H]2C[C@H]3[C@@H]4CCC5=CC(=O)CC[C@]5(C)[C@@]4(F)[C@@H](O)C[C@]3(C)[C@]2(C(=O)CCl)O1 [halcinonide],Viability,[1]; [11],0.106
same,ROS,[2]; [11],0.624
same,mitoOX,[3]; [11],0.831
same,MTT,[4]; [11],−0.789
same,nucOX,[5]; [11],0.284
same,ΔΨm,[6]; [11],0.570
same,GE-HTS,[7]; [11],0.492
same,cyt c,[8]; [11],−0.794
C=C1CC[C@@H]2[C@](C)(CO)[C@H](O)CC[C@@]2(C)[C@@H]1C/C=C1/C(=O)OC[C@H]1O [andrographolide],Viability,[1]; [12],−0.686
same,ROS,[2]; [12],−1.813
same,mitoOX,[3]; [12],−2.361
same,MTT,[4]; [12],−0.901
same,nucOX,[5]; [12],−0.698
same,ΔΨm,[6]; [12],−0.165
same,GE-HTS,[7]; [12],−1.323
same,cyt c,[8]; [12],−0.044
"CC(=O)OC1CC[C@@]2(C)C(CC[C@H]3[C@@H]4CC=C(C(C)=O)[C@@]4(C)C(=O)C[C@@H]32)C1 (stereo partly shown) [3-acetoxypregn-16-en-12,20-dione]",Viability,[1]; [13],−0.873
same,ROS,[2]; [13],0.201
same,mitoOX,[3]; [13],−0.958
same,MTT,[4]; [13],−0.553
same,nucOX,[5]; [13],−0.775
same,ΔΨm,[6]; [13],−0.216
same,GE-HTS,[7]; [13],−0.885
same,cyt c,[8]; [13],−0.050
CC(C)=CCc1c(O)cc2oc(C)cc(=O)c2c1O [peucenin],Viability,[1]; [13],−0.906
same,ROS,[2]; [13],−0.014
same,mitoOX,[3]; [13],0.361
same,MTT,[4]; [13],−1.695
same,nucOX,[5]; [13],0.051
same,ΔΨm,[6]; [13],−0.057
same,GE-HTS,[7]; [13],0.148
same,cyt c,[8]; [13],0.494
COc1ccc2c(c1O)-c1c(OC)c(OC)cc3c1[C@H](C2)N(C)CC3 [isocorydine],Viability (composite Z-score),[1]; Conc 11.72 μM,−1.678
same,Viability (composite Z-score),[1]; Conc 20 μM,1.230
same,ROS (composite Z-score),[2]; Conc 11.72 μM,1.214
same,ROS (composite Z-score),[2]; Conc 20 μM,−0.096
same,mitoOX (composite Z-score),[3]; Conc 11.72 μM,−0.664
same,mitoOX (composite Z-score),[3]; Conc 20 μM,−0.322
same,MTT (composite Z-score),[4]; Conc 11.72 μM,−1.041
same,MTT (composite Z-score),[4]; Conc 20 μM,−1.215
same,nucOX (composite Z-score),[5]; Conc 11.72 μM,0.451
same,nucOX (composite Z-score),[5]; Conc 20 μM,−0.463
same,ΔΨm (composite Z-score),[6]; Conc 11.72 μM,−1.052
same,ΔΨm (composite Z-score),[6]; Conc 20 μM,−0.017
same,GE-HTS (composite Z-score),[7]; Conc 11.72 μM,0.084
same,GE-HTS (composite Z-score),[7]; Conc 20 μM,−0.462
same,cyt c (composite Z-score),[8]; Conc 11.72 μM,0.632
same,cyt c (composite Z-score),[8]; Conc 20 μM,0.355
CC(=O)Oc1cc(OC(C)=O)c2c(c1)O[C@H](c1ccc(OC(C)=O)c(OC(C)=O)c1)[C@@H](OC(C)=O)C2 [catechin pentaacetate],Viability,[1]; [12],0.652
same,ROS,[2]; [12],−1.649
same,mitoOX,[3]; [12],0.161
same,MTT,[4]; [12],−1.126
same,nucOX,[5]; [12],0.314
same,ΔΨm,[6]; [12],−2.799
same,GE-HTS,[7]; [12],0.269
same,cyt c,[8]; [12],0.425
CCCCNc1ccc(C(=O)OCCN(C)C)cc1 [tetracaine],Viability,[1]; [10],−0.539
same,ROS,[2]; [10],0.320
same,mitoOX,[3]; [10],−0.034
same,MTT,[4]; [10],−0.048
same,nucOX,[5]; [10],−0.376
same,ΔΨm,[6]; [10],−0.492
same,GE-HTS,[7]; [10],−0.280
same,cyt c,[8],−0.536
same,cyt c,[8]; [10],0.383
COc1ccc([C@@H](C)C(=O)c2ccc(O)cc2O)cc1 [(R)-angolensin],Viability,[1]; [13],−0.164
same,ROS,[2]; [13],0.225
same,mitoOX,[3]; [13],−0.245
same,MTT,[4]; [13],−0.743
same,nucOX,[5]; [13],0.703
same,ΔΨm,[6]; [13],−0.444
same,GE-HTS,[7]; [13],0.403
same,cyt c,[8]; [13],−0.063
CC1C(=NO)CC2CC1C2(C)C (stereo not shown) [3-pinanone oxime],Viability,[1]; [12],−0.344
same,ROS,[2]; [12],−0.152
same,mitoOX,[3]; [12],0.386
same,MTT,[4]; [12],−0.210
same,nucOX,[5]; [12],0.031
same,ΔΨm,[6]; [12],−0.415
same,GE-HTS,[7]; [12],0.141
same,cyt c,[8]; [12],0.014
CN1CCc2cc3c(cc2[C@H]1[C@@H]1OC(=O)c2c1ccc1c2OCO1)OCO3 [(+)-bicuculline],Viability,[1],−0.190
same,Viability,[1]; [11],−0.572
same,ROS,[2],0.256
same,ROS,[2]; [11],0.428
same,mitoOX,[3]; [11],−0.495
same,MTT,[4],−1.330
same,MTT,[4]; [11],−0.812
same,nucOX,[5]; [11],−0.028
same,ΔΨm,[6],−0.852
same,ΔΨm,[6]; [11],−0.945
same,GE-HTS,[7]; [11],−0.189
same,cyt c,[8],0.300
same,cyt c,[8]; [11],−0.116
COC(=O)C1=CCCN(C)C1 [arecoline],Viability,[1]; [14],0.018
same,Viability,[1]; [15],0.481
same,ROS,[2]; [14],−1.032
same,ROS,[2]; [15],−1.084
same,mitoOX,[3]; [14],−1.072
same,mitoOX,[3]; [15],−0.513
same,MTT,[4]; [14],−0.452
same,MTT,[4]; [15],−0.607
same,nucOX,[5]; [14],−0.261
same,nucOX,[5]; [15],0.385
same,ΔΨm,[6]; [14],−0.451
same,ΔΨm,[6]; [15],−0.281
same,GE-HTS,[7]; [14],−0.545
same,GE-HTS,[7]; [15],0.098
same,cyt c,[8]; [14],0.839
same,cyt c,[8]; [15],0.503
